Where a name gives a salt, the structure may show the parent alone. Marks after values point to notes of the source that are not given here.
How the values were obtained:
cholinesterase = settings: Chinese Patent No. ZL 03104541.3; result in words; cited from earlier work
[1] = test system: aconitine-induced arrhythmia in rats; assay: Aconitine-induced arrhythmia in rats; type: in vivo, Wistar rats; settings: for Occurrence time CA / Occurrence time VF / Occurrence time VP / Occurrence time VT: 50 min before aconitine 20 μg/kg i.v., n=10, x±s; for Antagonistic action against the arrhythmia induced by aconitine in rats: 100 and 200 mg/kg intragastric, result in words
Method: (§1) Models of experimental arrhythmia induced by aconitine and ouabain in rats and guinea pigs were constructed. The inventive compound and the hydrochloride thereof were administrated with dosages of 100 and 200 mg/kg, respectively. The positive medicament group was administrated with 10 mg/kg of Propranolol, and the control group was administrated with 0.5% carboxymethylcellulose sodium. Each group was administrated by gastric perfusion once. The occurrence times of ventricular premature contraction (VP), ventricular tachycardia (VT), ventricular fibrillation (VF) and cardiac arrest (CA) after administration of aconitine in rats were recorded; and the dosages of ouabain were also observed when VP, VT, VF and CA appeared.
Sixty Wistar rats were divided into 6 groups randomly: a control group, a positive medicament (Propranolol) group, high- and low-dosage groups (200 and 100 mg/kg) of the inventive compound and the hydrochloride thereof, respectively, 10 animals per group. Fifty minutes after intragastric administration, the animals of each groups were anaesthetized by injecting 10% chloral hydrate intraperitoneally and fixed in a supine position. A type II lead normal electrocardiogram was then recorded. After that, 20 μg/kg of aconitine was injected via sublingual vein, and the change of the electrocardiogram was observed. The occurrence times of ventricular premature contraction (VP), ventricular tachycardia (VT), ventricular fibrillation (VF) and cardiac arrest (CA) after administration of aconitine in the rats were recorded.
(§2) The experimental data were analyzed with the statistic software SPSS 10.0, and represented as x±s. The comparison among groups was analyzed by the intergroup comparison difference t test.

[2] = test system: ouabain-induced arrhythmia in guinea pigs; assay: Ouabain-induced arrhythmia in guinea pigs; type: in vivo, EWG/B guinea pigs; settings: for Dosages of ouabain CA / Dosages of ouabain VF / Dosages of ouabain VP / Dosages of ouabain VT: ouabain infused 5 μg/min, n=6, x±s; for Antagonistic action against the arrhythmia induced by ouabain in guinea pigs: 100 and 200 mg/kg intragastric, result in words
Method: as §1
Thirty-six guinea pigs were divided into 6 groups randomly: a control group, a positive medicament (Propranolol) group, high- and low-dosage groups (200 and 100 mg/kg) of the inventive compound and the hydrochloride thereof, respectively, 6 animals per group. Fifty minutes after intragastric administration, the animals of each groups were anaesthetized by injecting 10% chloral hydrate intraperitoneally and fixed in a supine position. After the external jugular vein was separated, intubation was performed and a constant-speed micro-infusion apparatus was installed. Then a type II lead normal electrocardiogram was recorded. After that, ouabain was infused via the external jugular vein at a constant rate of 5 μg/min, and the change of the electrocardiogram was observed. The dosages of ouabain when VP, VT, VF and CA occurred after administration of ouabain in the guinea pigs were recorded.
as §2

[3] = test system: arrhythmia induced by coronary artery ligation in rats; assay: Arrhythmia induced by coronary artery ligation in rats; type: in vivo, Wistar rats; settings: for Incidence rate of arrhythmia CA / Incidence rate of arrhythmia VF / Incidence rate of arrhythmia VT / Occurrence times CA / Occurrence times VF / Occurrence times VP / Occurrence times VT: rats, coronary artery ligation; for Occurrence times CA / Occurrence times VF / Occurrence times VP / Occurrence times VT: x±s
Method: Models of experimental arrhythmia induced by coronary artery ligation in rats were constructed. The inventive compound was administrated in a dose of 50, 100, 200 mg/kg, respectively. […] Each group wa administrated by gastric perfusion once. The occurrence times and the incidence rates of ventricular premature contraction (VP), ventricular tachycardia (VT), ventricular fibrillation […] and cardiac arrest (CA) after coronary artery ligation in rats were recorded.
The experimental data were analyzed with the statistic software SPSS 10.0, and represented as x±s. The intergroup comparison was analyzed by the intergroup difference comparison t test. The incidence rates were compared by χ^2 test.

[4] = background statement; result in words; cited from earlier work
[5] = 100 mg/kg intragastric, 100 mg/kg
[6] = 200 mg/kg intragastric, 200 mg/kg
[7] = 50 mg/kg by gastric perfusion once
[8] = 100 mg/kg by gastric perfusion once
[9] = 200 mg/kg by gastric perfusion once

## O=C(Cc1ccccc1)Nc1c2c(nc3c1CCCC3)CCCC2 (as salt: hydrochloride) [Hydrochloride of the inventive compound, hydrochloride of 1,2,3,4,5,6,7,8-octohydro-9-phenylacetamidoacridine]
other
  melting point: 231 to 234 °C

## O=C(Cc1ccccc1)Nc1c2c(nc3c1CCCC3)CCCC2 (hydrate or solvate) [Inventive compound, 1,2,3,4,5,6,7,8-octohydro-9-phenylacetamidoacridine]
other
  melting point: 234 to 236 °C

## Nc1c2c(nc3c1CCCC3)CCCC2 [9-amino-1,2,3,4,5,6,7,8-octohydroacridine]
cholinesterase
  Inhibition activity for cholinesterase: proved to have an inhibition activity for cholinesterase

## O=C(Cc1ccccc1)Nc1c2c(nc3c1CCCC3)CCCC2 [Hydrochloride of the inventive compound, hydrochloride of 1,2,3,4,5,6,7,8-octohydro-9-phenylacetamidoacridine]
[1]; [5]
  Occurrence time CA: 907.2 ± 250.6 s
  Occurrence time VF: 640.4 ± 217.3 s
  Occurrence time VP: 17.3 ± 7.8 s
  Occurrence time VT: 84.4 ± 19.0 s
[1]; [6]
  Occurrence time CA: 911.2 ± 186.4 s
  Occurrence time VF: 660.2 ± 204.7 s
  Occurrence time VP: 22.6 ± 6.1 s
  Occurrence time VT: 98.6 ± 21.3 s
[1]
  Antagonistic action against the arrhythmia induced by aconitine in rats: significant antagonistic actions
[2]; [5]
  Dosages of ouabain CA: 280.3 ± 41.5 µg/kg
  Dosages of ouabain VF: 235.3 ± 36.3 µg/kg
  Dosages of ouabain VP: 171.8 ± 38.4 µg/kg
  Dosages of ouabain VT: 189.7 ± 30.3 µg/kg
[2]; [6]
  Dosages of ouabain CA: 370.4 ± 66.7 µg/kg
  Dosages of ouabain VF: 298.7 ± 49.1 µg/kg
  Dosages of ouabain VP: 189.5 ± 25.4 µg/kg
  Dosages of ouabain VT: 230.4 ± 35.3 µg/kg
[2]
  Antagonistic action against the arrhythmia induced by ouabain in guinea pigs: significant antagonistic actions

## O=C(Cc1ccccc1)Nc1c2c(nc3c1CCCC3)CCCC2 [Inventive compound, 1,2,3,4,5,6,7,8-octohydro-9-phenylacetamidoacridine]
[1]; [5]
  Occurrence time CA: 910.1 ± 276.5 s
  Occurrence time VF: 621.6 ± 203.7 s
  Occurrence time VP: 16.9 ± 8.3 s
  Occurrence time VT: 82.7 ± 21.0 s
[1]; [6]
  Occurrence time CA: 905.7 ± 170.3 s
  Occurrence time VF: 650.4 ± 193.3 s
  Occurrence time VP: 20.7 ± 6.9 s
  Occurrence time VT: 95.6 ± 20.6 s
[1]
  Antagonistic action against the arrhythmia induced by aconitine in rats: significant antagonistic actions
[3]; rats, 50, 100, 200 mg/kg by gastric perfusion, result in words
  Antagonistic action against the experimental arrhythmia induced by coronary artery ligation in rats: significant antagonistic action
[3]; [7]
  Incidence rate of arrhythmia CA: 21.4%
  Incidence rate of arrhythmia VF: 35.7%
  Incidence rate of arrhythmia VT: 42.8%
  Occurrence times CA: 1141.8 ± 161.9 s
  Occurrence times VF: 930.5 ± 379.4 s
  Occurrence times VP: 82.3 ± 79.0 s
  Occurrence times VT: 773.8 ± 344.3 s
[3]; [8]
  Incidence rate of arrhythmia CA: 14.3* %
  Incidence rate of arrhythmia VF: 14.3* %
  Incidence rate of arrhythmia VT: 28.6* %
  Occurrence times CA: 1163.4 ± 124.6 s
  Occurrence times VF: 1148.3 ± 193.6 s
  Occurrence times VP: 90.1 ± 39.7 s
  Occurrence times VT: 920.5 ± 270.6 s
[3]; [9]
  Incidence rate of arrhythmia CA: 12.5* %
  Incidence rate of arrhythmia VF: 12.5* %
  Incidence rate of arrhythmia VT: 12.5** %
  Occurrence times CA: 1176.4 ± 729.2 s
  Occurrence times VF: 1115.0 ± 138.8 s
  Occurrence times VP: 107.3 ± 67.9 s
  Occurrence times VT: 1043.2 ± 247.1 s
[2]; [5]
  Dosages of ouabain CA: 283.0 ± 46.5 µg/kg
  Dosages of ouabain VF: 230.5 ± 46.4 µg/kg
  Dosages of ouabain VP: 174.9 ± 41.7 µg/kg
  Dosages of ouabain VT: 184.1 ± 28.8 µg/kg
[2]; [6]
  Dosages of ouabain CA: 371.3 ± 69.6 µg/kg
  Dosages of ouabain VF: 294.5 ± 51.9 µg/kg
  Dosages of ouabain VP: 185.5 ± 24.8 µg/kg
  Dosages of ouabain VT: 228.3 ± 36.6 µg/kg
[2]
  Antagonistic action against the arrhythmia induced by ouabain in guinea pigs: significant antagonistic actions

## CC(C)NCC(O)COc1cccc2ccccc12 (stereo not shown) [Propranolol, reference compound]
[1]; 10 mg/kg intragastric
  Occurrence time CA: 913.7 ± 208.6 s
  Occurrence time VF: 705.6 ± 233.2 s
  Occurrence time VP: 23.6 ± 6.9 s
  Occurrence time VT: 101.6 ± 32.5 s
[2]; 10 mg/kg intragastric
  Dosages of ouabain CA: 390.6 ± 64.4 µg/kg
  Dosages of ouabain VF: 323.2 ± 71.4 µg/kg
  Dosages of ouabain VP: 201.3 ± 55.6 µg/kg
  Dosages of ouabain VT: 240.7 ± 48.78 µg/kg

## Nc1c2c(nc3ccccc13)CCCC2 [Tacrine, 9-amino-1,2,3,4-tetrahydroacridine]
[4]
  Hepatotoxicity: has a hepatotoxicity

Reference: US8722701B2, “1,2,3,4,5 6,7,8-octohydro-9-phenylacetamidoacridine, the preparation method and medical use thereof” (priority 2010, dated 2014)
